This is an account of results in ChEMBL document CHEMBL3045333, “Asymmetric aza-Michael additions of 4-nitrophthalimide to nitroalkenes and preliminary study of the products for herbicidal activities” (2013).

What all share (type): functional
The test system of test [1] is Echinochloa crus-galli. The experiment in a line: Herbicidal activity against Echinochloa crus-galli (barnyard grass) assessed as reduction of radical growth in dark conditions at 100 ug/ml treated twice. To be noted: for inhibition of growth at 100 µg/mL: Echinochloa crus-galli, read-out: GI.
Test [2] has as its system Echinochloa crus-galli. The experiment in a line: Herbicidal activity against Echinochloa crus-galli (barnyard grass) assessed as reduction of radical growth in dark conditions at 10 ug/ml treated twice. The note with it: for inhibition of growth at 10 µg/mL: Echinochloa crus-galli, read-out: GI.
Test [3] has as its system Echinochloa crus-galli. In words: Herbicidal activity against Echinochloa crus-galli (barnyard grass) assessed as reduction of seedling height growth in light conditions at 100 ug/ml treated twice. The note with it: for inhibition of growth at 100 µg/mL: Echinochloa crus-galli, read-out: GI.
Test [4] has as its system Echinochloa crus-galli. In words: Herbicidal activity against Echinochloa crus-galli (barnyard grass) assessed as reduction of seedling height growth in light conditions at 10 ug/ml treated twice. The note with it: read-out: GI.

With `O=C1c2ccc([N+](=O)[O-])cc2C(=O)C1C(C[N+](=O)[O-])c1ccc(Cl)cc1Cl` (centres undefined), the inhibition of growth at 100 µg/mL turned out to be 10% in the test with Echinochloa crus-galli [1] and 0% with Echinochloa crus-galli [3]. Moreover, the results for the inhibition of growth at 10 µg/mL in the test with Echinochloa crus-galli [2] and in the test with Echinochloa crus-galli [4] were 5% and 0%, respectively.

In the case of `O=C1c2ccc([N+](=O)[O-])cc2C(=O)C1C(C[N+](=O)[O-])c1ccc(F)cc1` (racemic), the inhibition of growth at 100 µg/mL in the test with Echinochloa crus-galli [1] was 0%. In addition, the inhibition of growth at 10 µg/mL in the test on Echinochloa crus-galli [2] worked out at 0%. Besides, the “growth inhibition (GI)” value with Echinochloa crus-galli [3] is 64.1%.

On to `O=C1c2ccc([N+](=O)[O-])cc2C(=O)C1C(C[N+](=O)[O-])c1cccc(Cl)c1` (centres undefined), for which the inhibition of growth at 100 µg/mL in the test with Echinochloa crus-galli [1] and in the test with Echinochloa crus-galli [3] was 0% each time. In addition, the inhibition of growth at 10 µg/mL with Echinochloa crus-galli [2] and with Echinochloa crus-galli [4] was 0% in each case.

As for `O=C1c2ccc([N+](=O)[O-])cc2C(=O)C1C(C[N+](=O)[O-])c1ccccc1Cl` (centres undefined), the inhibition of growth at 100 µg/mL came to 59.6% in the test with Echinochloa crus-galli [1] and 93.2% with Echinochloa crus-galli [3]. Besides, the inhibition of growth at 10 µg/mL in the test with Echinochloa crus-galli [2] and in the test on Echinochloa crus-galli [4] was 0% each time.

In the case of `O=C1c2ccc([N+](=O)[O-])cc2C(=O)C1C(C[N+](=O)[O-])c1ccc(F)cc1` (stereo in doubt; 4bd), the “growth inhibition (GI)” value in the test on Echinochloa crus-galli [3] is listed as 22%. The inhibition of growth at 10 µg/mL with Echinochloa crus-galli [4] worked out at 0%.

Turning to `O=C1c2ccc([N+](=O)[O-])cc2C(=O)C1C(C[N+](=O)[O-])c1ccc(Cl)cc1` (stereo in doubt; 4be), the “growth inhibition (GI)” value in the test with Echinochloa crus-galli [1] is listed as 5%; in the test with Echinochloa crus-galli [2] it was 0%; in the test with Echinochloa crus-galli [3], 9.7%. For the same compound, in the test with Echinochloa crus-galli [4], the inhibition of growth at 10 µg/mL came out at 0%.

For the compound `O=C1c2ccc([N+](=O)[O-])cc2C(=O)C1C(C[N+](=O)[O-])c1ccc(Cl)cc1` (racemic), the inhibition of growth at 100 µg/mL in the test on Echinochloa crus-galli [1] was 10%. Further, the “growth inhibition (GI)” value was 5% in the test on Echinochloa crus-galli [2] and 55.5% in the test on Echinochloa crus-galli [3].
